# Source: patent US11312723B2, “Pyranopyrazole and pyrazolopyridine immunomodulators for treatment of autoimmune diseases” (The Rockefeller University, priority 2017, dated 2022)
# Molecular target: Human FXIIa (Homo sapiens (Human), UniProt P00748)
# Test: Factor XIIa (FXIIa) inhibitory activity, chromogenic substrate (Pefachrome XIIa) cleavage
# Format: biochemical
# Details: 10 min pre-incubation, Pefachrome XIIa 400 μM
# Procedure: Factor XIIa (FXIIa) Inhibitory Activity:
# In a 96-well clear bottom plate, 80 μl of assay buffer was added to each well. Assay buffer consists of 0.5× Hank's Balanced Salt Solution (Invitrogen), buffered with 25 mM HEPES pH 7.4 (Invitrogen) and 0.5× Tris-buffered saline with Tween-20 0.05% (Santa Cruz Biotechnology). Test compounds were first dissolved in DMSO (Sigma) and then 4 μl were added to test wells containing assay buffer. Serial dilutions using an automated multi-channel pipette were used to generate a concentration range of approximately 1-100 μM. Human FXIIa (Enzyme Research Labs) was diluted in assay buffer to a final concentration of 12.5 nM. 80 μl of this enzyme solution was added to the assay wells. The enzyme/compound mixtures were incubated for 10 minutes at room temperature. Chromogenic substrate (Pefachrome XIIa; Enzyme Research Labs) was added to assay wells at a final concentration of 400 μM. The assay plate was spun for 1 minute at 1500 g and then read at 37° C. in a SpectraMax M2 plate reader (λ=405 nm). Activity was quantified as the rate of change in absorbance, which corresponds to the rate of substrate cleavage. IC50 values were determined as the concentration of inhibitor that produced 50% of the rate of change of control wells without any inhibitor. For compounds with activity <1 μM, the assay was repeated with a lower concentration range, typically from 10-1000 nM.
# Sequence of Human FXIIa (P00748 373-615): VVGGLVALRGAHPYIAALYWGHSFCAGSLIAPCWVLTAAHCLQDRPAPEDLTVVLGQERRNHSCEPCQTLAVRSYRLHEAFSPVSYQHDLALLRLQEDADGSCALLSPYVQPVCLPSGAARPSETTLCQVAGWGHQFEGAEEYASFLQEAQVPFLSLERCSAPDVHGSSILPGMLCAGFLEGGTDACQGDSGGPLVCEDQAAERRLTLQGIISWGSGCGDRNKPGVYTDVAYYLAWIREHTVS
# Sequence of Human FXIIa (P00748 20-372 partner): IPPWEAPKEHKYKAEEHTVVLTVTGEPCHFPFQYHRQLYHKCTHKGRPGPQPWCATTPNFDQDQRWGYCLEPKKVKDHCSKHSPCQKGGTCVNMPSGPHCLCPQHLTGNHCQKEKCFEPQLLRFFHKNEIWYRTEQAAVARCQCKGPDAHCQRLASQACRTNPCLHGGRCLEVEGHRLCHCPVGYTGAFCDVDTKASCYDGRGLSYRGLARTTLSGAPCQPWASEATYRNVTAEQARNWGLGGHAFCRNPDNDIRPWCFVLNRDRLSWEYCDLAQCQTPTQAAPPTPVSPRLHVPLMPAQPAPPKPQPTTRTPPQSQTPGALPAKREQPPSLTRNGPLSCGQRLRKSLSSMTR
row,Structure (SMILES),IC50
1,"CS(=O)(=O)N1CCc2c(nn(C(=O)C3CCNc4ccc(F)cc43)c2N)C1 (single isomer, unassigned) [Example 19, (R*)-(3-amino-6-(methylsulfonyl)-4,5,6,7-tetrahydropyrazolo[3,4-c]pyridin-2-yl)(6-fluoro-1,2,3,4-tetrahydroquinolin-4-yl)methanone]",11 µM
2,"CCc1ccc2c(c1)C(C(=O)n1nc3c(c1N)CCN(S(C)(=O)=O)C3)CCN2 (single isomer, unassigned) [Example 33, (R*)-(3-amino-6-(methylsulfonyl)-4,5,6,7-tetrahydropyrazolo[3,4-c]pyridin-2-yl)(6-ethyl-1,2,3,4-tetrahydroquinolin-4-yl)methanone]",10 µM
3,"Cc1cccc2c1NCCC2C(=O)n1nc2c(c1N)CCN(S(C)(=O)=O)C2 (single isomer, unassigned) [Example 36, (R*)-(3-amino-6-(methylsulfonyl)-4,5,6,7-tetrahydropyrazolo[3,4-c]pyridin-2-yl)(8-methyl-1,2,3,4-tetrahydroquinolin-4-yl)methanone]",17 µM
4,"CS(=O)(=O)N1CCc2c(nn(C(=O)C3CCNc4c(Cl)cccc43)c2N)C1 (single isomer, unassigned) [Example 59, (R*)-(3-amino-6-(methylsulfonyl)-4,5,6,7-tetrahydropyrazolo[3,4-c]pyridin-2-yl)(8-chloro-1,2,3,4-tetrahydroquinolin-4-yl)methanone]",35 µM
5,"COc1cccc2c1NCCC2C(=O)n1nc2c(c1N)CCN(S(C)(=O)=O)C2 (single isomer, unassigned) [Example 64, (R*)-(3-amino-6-(methylsulfonyl)-4,5,6,7-tetrahydropyrazolo[3,4-c]pyridin-2-yl)(8-methoxy-1,2,3,4-tetrahydroquinolin-4-yl)methanone]",35 µM
6,"CCc1cc(C)c2c(c1)C(C(=O)n1nc3c(c1N)CCN(S(C)(=O)=O)C3)CCN2 (single isomer, unassigned) [Example 70, (3-amino-6-(methylsulfonyl)-4,5,6,7-tetrahydropyrazolo[3,4-c]pyridin-2-yl)((R*)-6-ethyl-8-methyl-1,2,3,4-tetrahydroquinolin-4-yl)methanone]",5 µM
7,"Nc1c2c(nn1C(=O)C1CCNc3c(Cl)cccc31)CNCC2 (single isomer, unassigned) [Example 73, (R*)-(3-amino-4,5,6,7-tetrahydropyrazolo[3,4-c]pyridin-2-yl)(8-chloro-1,2,3,4-tetrahydroquinolin-4-yl)methanone]",7 µM
8,"Cc1cc(F)cc2c1NCCC2C(=O)n1nc2c(c1N)CCOC2 (single isomer, unassigned) [Example 77, (R*)-(3-amino-4,5-dihydropyrano[3,4-c]pyrazol-2(7H)-yl)(6-fluoro-8-methyl-1,2,3,4-tetrahydroquinolin-4-yl)methanone]",70 µM
9,"Cc1cccc2c1NCCC2C(=O)n1nc2c(c1N)CCN(S(C)(=O)=O)C2C (single isomer, unassigned) [Example 78, (3-amino-7-methyl-6-(methylsulfonyl)-4,5,6,7-tetrahydropyrazolo[3,4-c]pyridin-2-yl)(8-methyl-1,2,3,4-tetrahydroquinolin-4-yl)methanone]",> 80 µM
10,"CS(=O)(=O)N1CCc2c(nn(C(=O)[C@@H]3CCNc4ccccc43)c2N)C1 (single isomer, unassigned) [Example 134, (R*)-(3-amino-6-(methylsulfonyl)-4,5,6,7-tetrahydro-pyrazolo[3,4-c]pyridin-2-yl)(1,2,3,4-tetrahydro-quinolin-4-yl)methanone]",28 µM
11,"Nc1c2c(nn1C(=O)[C@@H]1CCNc3ccc(F)cc31)CNCC2 (single isomer, unassigned) [Example 147, (R*)-(3-amino-4,5,6,7-tetrahydro-pyrazolo[3,4-c]pyridin-2-yl)(6-fluoro-1,2,3,4-tetrahydro-quinolin-4-yl)methanone]",10 µM
12,"CCN1CCc2c(nn(C(=O)[C@@H]3CCNc4ccc(F)cc43)c2N)C1 (single isomer, unassigned) [Example 166, (R*)-(3-amino-6-ethyl-4,5,6,7-tetrahydro-pyrazolo[3,4-c]pyridin-2-yl)(6-fluoro-1,2,3,4-tetrahydro-quinolin-4-yl)methanone]",10 µM
13,"CCN1CCc2c(nn(C(=O)[C@@H]3CCNc4c(C)cc(F)cc43)c2N)C1 (single isomer, unassigned) [Example 171, (R*)-(3-amino-6-ethyl-4,5,6,7-tetrahydro-pyrazolo[3,4-c]pyridin-2-yl)(6-fluoro-8-methyl-1,2,3,4-tetrahydro-quinolin-4-yl)methanone]",4.5 µM
14,"CCN1CCc2c(nn(C(=O)[C@@H]3CCNc4c(C)cccc43)c2N)C1 (single isomer, unassigned) [Example 174, (R*)-(3-amino-6-ethyl-4,5,6,7-tetrahydro-pyrazolo[3,4-c]pyridin-2-yl)(8-methyl-1,2,3,4-tetrahydro-quinolin-4-yl)methanone]",8 µM
15,"Cc1cccc2c1NCC[C@H]2C(=O)n1nc2c(c1N)CCNC2 (single isomer, unassigned) [Example 177, (R*)-(3-amino-4,5,6,7-tetrahydro-pyrazolo[3,4-c]pyridin-2-yl)(8-methyl-1,2,3,4-tetrahydro-quinolin-4-yl)methanone]",30 µM
16,"Cc1cccc2c1NCC[C@H]2C(=O)n1nc2c(c1N)CCN(S(=O)(=O)C1CCC1)C2 (single isomer, unassigned) [Example 183, (R*)-(3-amino-6-(cyclobutyl-sulfonyl)-4,5,6,7-tetrahydro-pyrazolo[3,4-c]pyridin-2-yl)(8-methyl-1,2,3,4-tetrahydro-quinolin-4-yl)methanone]",35 µM
17,"Cc1cccc2c1NCC[C@H]2C(=O)n1nc2c(c1N)CCN(S(=O)(=O)C1COC1)C2 (single isomer, unassigned) [Example 186, (R*)-(3-amino-6-(oxetan-3-ylsulfonyl)-4,5,6,7-tetrahydro-pyrazolo[3,4-c]pyridin-2-yl)(8-methyl-1,2,3,4-tetrahydro-quinolin-4-yl)methanone]",40 µM

# Compounds with a lower IC50, results first:
row,IC50,Structure (SMILES)
1,3 µM,"Cc1cccc2c1NCCC2C(=O)n1nc2c(c1N)CCN(S(C)(=O)=O)C2C (single isomer, unassigned) [Example 79, (3-amino-7-methyl-6-(methylsulfonyl)-4,5,6,7-tetrahydropyrazolo[3,4-c]pyridin-2-yl)(8-methyl-1,2,3,4-tetrahydroquinolin-4-yl)methanone]"
2,3 µM,"CS(=O)(=O)N1CCc2c(nn(C(=O)C3CCCc4[nH]c(Cl)cc43)c2N)C1 (single isomer, unassigned) [Example 132, (R*)-(3-amino-6-(methylsulfonyl)-4,5,6,7-tetrahydro-pyrazolo[3,4-c]pyridin-2-yl)(2-chloro-4,5,6,7-tetrahydro-1H-indol-4-yl)methanone]"
3,2.5 µM,"Cc1cc(F)cc2c1NCCC2C(=O)n1nc2c(c1N)CCN(S(C)(=O)=O)C2 (single isomer, unassigned) [Example 54, (R*)-(3-amino-6-(methylsulfonyl)-4,5,6,7-tetrahydropyrazolo[3,4-c]pyridin-2-yl)(6-fluoro-8-methyl-1,2,3,4-tetrahydroquinolin-4-yl)methanone]"
4,0.2 µM,"Cc1cccc2c1NCC[C@@H]2C(=O)n1nc2c(c1N)CCN(S(=O)(=O)C1COC1)C2 (single isomer, unassigned) [Example 185, (S*)-(3-amino-6-(oxetan-3-ylsulfonyl)-4,5,6,7-tetrahydro-pyrazolo[3,4-c]pyridin-2-yl)(8-methyl-1,2,3,4-tetrahydro-quinolin-4-yl)methanone]"
5,0.07 µM,"Nc1c2c(nn1C(=O)C1CCNc3c(Cl)cccc31)CNCC2 (single isomer, unassigned) [Example 72, (S*)-(3-amino-4,5,6,7-tetrahydropyrazolo[3,4-c]pyridin-2-yl)(8-chloro-1,2,3,4-tetrahydroquinolin-4-yl)methanone]"
6,0.07 µM,"Cc1cc(F)cc2c1NCC[C@@H]2C(=O)n1nc2c(c1N)CNCC2 (single isomer, unassigned) [Example 82, (S*)-(3-amino-4,5,6,7-tetrahydropyrazolo[4,3-c]pyridin-2-yl)(6-fluoro-8-methyl-1,2,3,4-tetrahydroquinolin-4-yl)methanone]"
7,0.04 µM,"Cc1cccc2c1NCC[C@@H]2C(=O)n1nc2c(c1N)CCN(S(=O)(=O)N(C)C)C2 (single isomer, unassigned) [Example 180, (S*)-3-amino-N,N-dimethyl-2-(8-methyl-1,2,3,4-tetrahydro-quinoline-4-carbonyl)-4,5-dihydro-2H-pyrazolo[3,4-c]pyridine-6(7H)-sulfonamide]"
8,0.04 µM,"Cc1cccc2c1NCC[C@@H]2C(=O)n1nc2c(c1N)CCN(S(=O)(=O)C1CCC1)C2 (single isomer, unassigned) [Example 182, (S*)-(3-amino-6-(cyclobutyl-sulfonyl)-4,5,6,7-tetrahydro-pyrazolo[3,4-c]pyridin-2-yl)(8-methyl-1,2,3,4-tetrahydro-quinolin-4-yl)methanone]"
9,0.02 µM,"CCc1ccc2c(c1)C(C(=O)n1nc3c(c1N)CCN(S(C)(=O)=O)C3)CCN2 (single isomer, unassigned) [Example 32, (S*)-(3-amino-6-(methylsulfonyl)-4,5,6,7-tetrahydropyrazolo[3,4-c]pyridin-2-yl)(6-ethyl-1,2,3,4-tetrahydroquinolin-4-yl)methanone]"
